Results taken from patent US6861390B2, “Derivatives of UK-2A” (priority 2001, dated 2005).

Key:
[1] = system: Puccinia recondita (PUCCRT); test: Brown Rust of Wheat, whole plant 24 Hour Protectant (T5); conditions: wheat (cultivar Yuma), sprayed at 100 ppm, inoculated after 24 hours, read-out: T5 PUCCRT in vivo 1 Day Protectant, control of fungal infection
[2] = system: Phytophthora infestans (PHYTIN); test: whole plant or invertebrate; conditions: in Solanum lycopersicum, 24 h, read-out: T3 PHYTIN in vivo 1 Day Protectant, control of fungal infection
[3] = system: Mycosphaerella graminicola (Septoria tritici, SEPTTR); test: microbe, parasite or virus in culture; type: cell-based; conditions: Zymoseptoria tritici, read-out: T11 SEPTTR in vitro Growth Inhibition
[4] = system: Rhizoctonia solani (RHIZSO); test: microbe, parasite or virus in culture; type: cell-based; conditions: read-out: T10 RHIZSO in vitro Growth Inhibition
Ustilago maydis (USTIMA) = test: microbe, parasite or virus in culture; type: cell-based; conditions: Mycosarcoma maydis, read-out: T12 USTIMA in vitro Growth Inhibition
[5] = system: Leptosphaeria nodorum (LEPTNO); test: Glume Blotch of Wheat, whole plant 24 Hour Protectant (T2); conditions: Parastagonospora nodorum; wheat (cultivar Yuma), sprayed at 100 ppm, inoculated after 24 hours; read-out: T2 LEPTNO in vivo 1 Day Protectant, control of fungal infection
[6] = system: Stagonospora nodorum (Leptosphaeria nodorum, LEPTNO); test: microbe, parasite or virus in culture; type: cell-based; conditions: Parastagonospora nodorum, read-out: T7 LEPTNO in vitro Growth Inhibition
[7] = system: Magnaporthe grisea (Pyricularia oryzae, PYRIOR); test: microbe, parasite or virus in culture; type: cell-based; conditions: read-out: T9 PYRIOR in vitro Growth Inhibition
[8] = system: Phytophthora infestans (PHYTIN); test: microbe, parasite or virus in culture; type: cell-based; conditions: in Secale cereale, read-out: T8 PHYTIN in vitro Growth Inhibition
[9] = system: Erysiphe graminis (ERYSGT); test: Powdery Mildew of Wheat, whole plant 24 Hour Protectant (T1); conditions: Blumeria graminis, in Triticum aestivum, read-out: T1 ERYSGT in vivo 1 Day Protectant, control of fungal infection
[10] = system: Septoria tritici (SEPTTR); test: Leaf Blotch of Wheat, whole plant 24 Hour Protectant (T6); conditions: Zymoseptoria tritici; wheat (cultivar Monon), sprayed at 100 ppm, inoculated after 24 hours; read-out: T6 SEPTTR in vivo 1 Day Protectant, control of fungal infection

SMILES	pest or weed control at 100 ppm [1]	pest or weed control at 100 ppm [2]	inhibition at 25 ppm [3]	inhibition at 25 ppm [4]	inhibition at 25 ppm (Ustilago maydis (USTIMA))	pest or weed control at 100 ppm [5]	inhibition at 25 ppm [6]	inhibition at 25 ppm [7]	inhibition at 25 ppm [8]	melting point	pest or weed control at 100 ppm [9]	pest or weed control at 100 ppm [10]
COc1ccnc(C(=O)N[C@H]2COC(=O)[C@H](Cc3ccccc3)[C@@H](OC(=O)C(C)C)[C@H](C)OC2=O)c1OCOC(=O)C1CC1 [Compound 26]	75 to 100%	< 25%	< 80%	< 80%	< 80%	75 to 100%	> 80%	< 80%	< 80%	152 to 153 °C	25 to 74%	75 to 100%
COCCC(=O)OCOc1c(OC)ccnc1C(=O)N[C@H]1COC(=O)[C@H](Cc2ccccc2)[C@@H](OC(=O)C(C)C)[C@H](C)OC1=O [Compound 27]	75 to 100%	< 25%	> 80%	< 80%	< 80%	75 to 100%	> 80%	> 80%	< 80%	84 to 86 °C	75 to 100%	75 to 100%
CCOCCC(=O)OCOc1c(OC)ccnc1C(=O)N[C@H]1COC(=O)[C@H](Cc2ccccc2)[C@@H](OC(=O)C(C)C)[C@H](C)OC1=O [Compound 28]	75 to 100%	< 25%	> 80%	> 80%	> 80%	75 to 100%	> 80%	> 80%	< 80%	50 to 55 °C	25 to 74%	75 to 100%
COc1ccnc(C(=O)N[C@H]2COC(=O)[C@H](Cc3ccccc3)[C@@H](OC(=O)C(C)C)[C@H](C)OC2=O)c1OCOC(=O)c1ccccc1 [Compound 29]	75 to 100%	< 25%	< 80%	< 80%	< 80%	75 to 100%	> 80%	< 80%	< 80%	65 to 70 °C	25 to 74%	75 to 100%
CCOCC(=O)OCOc1c(OC)ccnc1C(=O)N[C@H]1COC(=O)[C@H](Cc2ccccc2)[C@@H](OC(=O)C(C)C)[C@H](C)OC1=O [Compound 31]	75 to 100%	< 25%	< 80%	< 80%	< 80%	75 to 100%	> 80%	> 80%	< 80%	79 to 81 °C	25 to 74%	75 to 100%
COc1ccnc(C(=O)N[C@H]2COC(=O)[C@H](Cc3ccccc3)[C@@H](OC(=O)C(C)C)[C@H](C)OC2=O)c1OCOC(=O)C1CCCC1 [Compound 33]	75 to 100%	< 25%	< 80%	< 80%	< 80%	75 to 100%	> 80%	> 80%	< 80%	128 to 129 °C	25 to 74%	75 to 100%
COC(=O)OCOc1c(OC)ccnc1C(=O)N[C@H]1COC(=O)[C@H](Cc2ccccc2)[C@@H](OC(=O)C(C)C)[C@H](C)OC1=O [Compound 44]	75 to 100%	< 25%	> 80%	< 80%	< 80%	75 to 100%	> 80%	< 80%	< 80%	140 to 144 °C	25 to 74%	75 to 100%
COc1ccnc(C(=O)N[C@H]2COC(=O)[C@H](Cc3ccccc3)[C@@H](OCC(C)C)[C@H](C)OC2=O)c1OCOC(C)=O [Compound 49]	75 to 100%	25 to 74%	> 80%	< 80%	< 80%	75 to 100%	> 80%	> 80%	< 80%	130 to 131 °C	75 to 100%	75 to 100%
COc1ccnc(C(=O)N[C@H]2COC(=O)[C@H](Cc3ccccc3)[C@@H](OC3CCCC3)[C@H](C)OC2=O)c1OCOC(C)=O [Compound 50]	75 to 100%	25 to 74%	< 80%	< 80%	< 80%	75 to 100%	> 80%	> 80%	< 80%	130 to 132 °C	25 to 74%	75 to 100%
